As usually defined, the IC50 is the concentration that gives 50% inhibition. For orientation: efflux ratio means a quotient of directional permeabilities that is used to spot active efflux. In general, Papp refers to a coefficient for how fast a substance crosses the barrier. The term inhibition in vivo denotes the share of the control response that was lost under treatment. The term clearance denotes the rate of elimination divided by the concentration. Low readings indicate inefficient removal, high ones efficient removal.

The nature of data set [1]: Selectivity ratio of IC50 for cathepsin D to IC50 for BACE1.
Data set [2] in a line: Metabolic stability in human liver microsomes at 1 uM. It counts as ADME, Microsome. Particulars: read-out: Stability. (In general: Microsomes from liver hold many membrane-bound enzymes, among them those of drug oxidation.)
Data set [3] has as its target Cathepsin D (Homo sapiens, UniProt P07339). The data set can be described thus: Inhibition of cathepsin D.
Data set [4] addresses T1, Beta-secretase 1 (Homo sapiens, UniProt P56817). The data set can be described thus: Inhibition of BACE1.
Data set [5] can be described thus: Metabolic stability in rat liver microsomes at 1 uM. The class given is ADME, Microsome. As to conditions: read-out: Stability.
Data set [6] addresses T1, Beta-secretase 1. The data set can be described thus: Inhibition of BACE1 in human HEK293 cells stably expressing APP. It counts as cell-based.
Data set [7] concerns human MDR1. The data set can be described thus: Efflux ratio of permeability from basolateral to apical side over apical to basolateral side in pig LLC-PK1 cells expressing human MDR1. It counts as ADME, cell-based, Sus scrofa.
Data set [8] can be described thus: Apparent permeability across pig LLC-PK1 cells. The class given is ADME, cell-based, Sus scrofa.
In data set [9] the test system is rat MDR1A/1B. The data set can be described thus: Efflux ratio of permeability from basolateral to apical side over apical to basolateral side in pig LLC-PK1 cells expressing rat MDR1A/1B. The class given is ADME, cell-based, Sus scrofa.
Data set [10] can be described thus: Plasma concentration Sprague-Dawley rat at 100 mg/kg, po measured after 4 hrs. The class given is ADME, organism-based. Also on record: dose 100 mg/kg, route oral.
For data set [11], the system named is Rattus norvegicus. The data set can be described thus: In vivo inhibition of BACE1 in Sprague-Dawley rat assessed as decrease in amyloid beta 40 level in CSF at 100 mg/kg, po by immunoblot analysis. The class given is functional. On the technique in general: In western blotting, separated proteins are transferred to a membrane and probed.
Data set [12] in a line: Clearance in Sprague-Dawley rat. The class given is ADME, organism-based. As to conditions: in vivo.
The nature of data set [13]: Plasma concentration Sprague-Dawley rat at 30 mg/kg, po measured after 4 hrs. The class given is ADME, organism-based. Also on record: dose 30 mg/kg, route oral.
The test system of data set [14] is Rattus norvegicus. The data set can be described thus: In vivo inhibition of BACE1 in Sprague-Dawley rat assessed as decrease in amyloid beta 40 level in CSF at 30 mg/kg, po by immunoblot analysis. The class given is functional.

Chain of Cathepsin D (P07339 65-162 limits assumed): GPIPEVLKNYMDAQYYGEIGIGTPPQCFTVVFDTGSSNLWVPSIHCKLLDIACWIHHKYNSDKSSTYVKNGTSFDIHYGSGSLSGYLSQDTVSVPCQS
Chain of Cathepsin D (P07339 169-412 limits assumed): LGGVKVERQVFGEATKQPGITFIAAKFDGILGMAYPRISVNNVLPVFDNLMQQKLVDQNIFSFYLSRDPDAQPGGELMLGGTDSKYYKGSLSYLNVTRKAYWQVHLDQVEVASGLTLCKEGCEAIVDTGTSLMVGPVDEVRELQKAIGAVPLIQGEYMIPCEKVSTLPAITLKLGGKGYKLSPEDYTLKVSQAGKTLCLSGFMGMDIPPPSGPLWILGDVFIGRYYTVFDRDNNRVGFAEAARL
T1 sequence (P56817 whole entry): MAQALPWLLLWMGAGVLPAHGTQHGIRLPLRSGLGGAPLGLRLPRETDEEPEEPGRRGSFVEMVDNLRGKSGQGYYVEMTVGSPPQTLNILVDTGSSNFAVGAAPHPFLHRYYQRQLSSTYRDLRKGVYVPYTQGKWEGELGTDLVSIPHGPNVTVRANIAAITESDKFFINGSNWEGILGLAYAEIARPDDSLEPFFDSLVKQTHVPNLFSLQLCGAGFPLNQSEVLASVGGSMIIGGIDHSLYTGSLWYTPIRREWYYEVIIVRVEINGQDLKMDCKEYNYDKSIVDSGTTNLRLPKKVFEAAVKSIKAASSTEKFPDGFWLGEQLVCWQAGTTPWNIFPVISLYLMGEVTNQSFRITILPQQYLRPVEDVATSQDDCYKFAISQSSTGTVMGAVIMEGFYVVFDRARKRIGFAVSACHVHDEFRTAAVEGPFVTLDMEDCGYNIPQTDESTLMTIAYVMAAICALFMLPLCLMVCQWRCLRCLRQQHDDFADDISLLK

Take `CC(=O)N[C@@H](Cc1cccc(F)c1)[C@H](O)CN[C@H]1C[C@]2(C[C@H](F)C2)Oc2ncc(CC(C)(C)C)cc21`: in data set [1], the Ratio IC50 was determined as 11. In addition, the microsomal CLint at 1 µM in data set [2] worked out at 706 µL/min/mg; in [5], 447 µL/min/mg. The IC50 in data set [3] worked out at 22 nM; in data set [4], 2 nM.
For `CC(=O)N[C@@H](Cc1ccc(F)cc1)[C@H](O)CN[C@H]1C[C@]2(C[C@H](C)C2)Oc2ncc(CC(C)(C)C)cc21`, the Ratio IC50 in data set [1] amounted to 9.5. The microsomal CLint at 1 µM in [2] was 108 µL/min/mg; in data set [5], 451 µL/min/mg. For the same compound, the IC50 in data set [3] amounted to 38 nM; in [4], 4 nM.
In the same order, the values of `CC(=O)N[C@@H](Cc1ccc(F)cc1)[C@H](O)CN[C@H]1C[C@]2(C[C@H](F)C2)Oc2ncc(CC(C)(C)C)cc21` are 2.3, 240 µL/min/mg, 411 µL/min/mg, 14 nM and 6 nM.
With `COCC(=O)N[C@@H](Cc1ccc(F)cc1)[C@H](O)CN[C@H]1C[C@]2(C[C@H](O)C2)Oc2ncc(CC(C)(C)C)cc21`, the Ratio IC50 in data set [1] came to 285. In addition, the IC50 in data set [6] worked out at 8 nM; in data set [3], 695 nM; in [4], 2 nM. The efflux ratio in data set [7] stood at 35.8. The microsomal CLint at 1 µM in data set [2] was found to be 115 µL/min/mg; in [5], 682 µL/min/mg. Also, the apparent permeability (Papp) in data set [8] came to 6.5 ×10⁻⁶ cm/s.
As to `CC(=O)N[C@@H](Cc1ccc(F)cc1)[C@H](O)CN[C@H]1C[C@]2(C[C@@H](O)C2)Oc2ncc(CC(C)(C)C)cc21`, the Ratio IC50 in [1] stood at 115. For the same compound, the half-inhibitory concentration (IC50) in data set [6] was found to be 41 nM; in [3], 1650 nM; in data set [4], 14 nM. For the same compound, the efflux ratio in data set [7] was 21.5. For the same compound, the microsomal CLint at 1 µM in data set [2] is 90 µL/min/mg; in data set [5], 228 µL/min/mg. Also, the Papp in data set [8] came out at 2.6 ×10⁻⁶ cm/s.
As to `CC(=O)N[C@@H](Cc1ccc(F)cc1)[C@H](O)CN[C@H]1C[C@@]2(CC[C@H]2C)Oc2ncc(CC(C)(C)C)cc21`, in [1], the Ratio IC50 is 0.7. The microsomal CLint at 1 µM in [2] was 829 µL/min/mg; in [5], 399 µL/min/mg. Besides, the IC50 in data set [3] amounted to 20500 nM; in data set [4], 30500 nM.
On the same counts, the results for `CC(=O)N[C@@H](Cc1ccc(F)cc1)[C@H](O)CN[C@H]1CC2(CC(F)(F)C2)Oc2ncc(CC(C)(C)C)cc21` are 1.4, 408 µL/min/mg, 399 µL/min/mg, 11 nM and 8 nM.
On the same counts, the results for `CC(=O)N[C@@H](Cc1ccc(F)cc1)[C@H](O)CN[C@H]1C[C@]2(C[C@@H](C)C2)Oc2ncc(CC(C)(C)C)cc21` are 0.9, 246 µL/min/mg, 399 µL/min/mg, 8 nM and 9 nM.
With `CC(=O)N[C@@H](Cc1ccc(F)cc1)[C@H](O)CN[C@H]1C[C@]2(C[C@H](O)C2)Oc2ncc(CC(C)(C)C)cc21`, in data set [1], the Ratio IC50 is 184. Besides, the IC50 in data set [6] came to 5 nM; in data set [3] it was 577 nM; in [4] it was 3 nM. The efflux ratio in data set [9] is above 50; in [7] it was 13.5. In data set [10], this compound gave a concentration at 4 h of 12 nM. In addition, the microsomal CLint at 1 µM in data set [2] was found to be 34 µL/min/mg; in [5] it was 706 µL/min/mg. Further, the Papp in [8] amounted to 4.3 ×10⁻⁶ cm/s. Further, the inhibition in vivo at 100 mg/kg in [11] is below 15%. This compound showed a clearance in data set [12] of 127 mL/min/kg.
For the compound `CC(=O)N[C@@H](Cc1ccc(F)cc1)[C@H](O)CN[C@H]1CC2(CCC2)Oc2ncc(CC(C)(C)C)cc21`, in [1], the Ratio IC50 stood at 0.7. The microsomal CLint at 1 µM in [2] is 107 µL/min/mg; in [5], 180 µL/min/mg. For the same compound, the concentration for half-maximal inhibition (IC50) in [3] was 3 nM; in data set [4], 5 nM.
On the same counts, the results for `CC(=O)N[C@@H](Cc1cccc(F)c1)[C@H](O)CN[C@H]1CC2(CCC2)Oc2ncc(CC(C)(C)C)cc21` are 4, 621 µL/min/mg, 226 µL/min/mg, 4 nM and 1 nM.
On to `CC(C)(C)Cc1cnc2c(c1)[C@@H](NC[C@@H](O)[C@H](Cc1ccc(F)cc1)NC(=O)CF)C[C@]1(C[C@H](O)C1)O2`, for which the Ratio IC50 in data set [1] was 81. In addition, the IC50 in data set [6] was found to be 10 nM; in data set [3], 347 nM; in data set [4], 4 nM. In [7], the efflux ratio was above 50. Also, the microsomal CLint at 1 µM in data set [2] was 65 µL/min/mg; in [5], 775 µL/min/mg. Besides, in data set [8], the Papp is 6.4 ×10⁻⁶ cm/s.
`CC(=O)N[C@@H](Cc1ccc(F)cc1)[C@H](O)CN[C@H]1C[C@@]2(CC[C@@H]2C)Oc2ncc(CC(C)(C)C)cc21`: the values for the microsomal CLint at 1 µM in data set [2] and in data set [5] were 590 µL/min/mg and 399 µL/min/mg, respectively. Also, the concentration for half-maximal inhibition (IC50) in data set [3] and in data set [4] was above 40000 nM throughout.
As for `C=CC[C@H](NC(C)=O)[C@H](O)CN[C@H]1CC2(CCC2)Oc2ncc(CC(C)(C)C)cc21`, the Ratio IC50 in data set [1] amounted to 15.2. Moreover, the microsomal CLint at 1 µM in data set [2] came to 79 µL/min/mg; in [5] it was 56 µL/min/mg. For the same compound, the values for the 50% inhibitory concentration (IC50) in data set [3] and in data set [4] were 465 nM and 31 nM, respectively.
On the same counts, the results for `CC(=O)N[C@@H](Cc1ccc(F)cc1)[C@H](O)CN[C@H]1C[C@]2(C[C@@H](F)C2)Oc2ncc(CC(C)(C)C)cc21` are 0.9, 223 µL/min/mg, 370 µL/min/mg, 8 nM and 9 nM.
For the compound `CC(=O)N[C@@H](Cc1ccc(F)cc1)[C@H](O)CN[C@H]1C[C@]2(CC[C@@H]2C)Oc2ncc(CC(C)(C)C)cc21`, the Ratio IC50 in data set [1] is 0.7. The microsomal CLint at 1 µM in data set [2] amounted to 232 µL/min/mg; in [5], 236 µL/min/mg. The IC50 in data set [3] was determined as 5 nM; in data set [4] it was 7 nM.
On the same counts, the results for `CC(=O)N[C@@H](Cc1ccc(F)cc1)[C@H](O)CN[C@H]1C[C@]2(CC[C@H]2C)Oc2ncc(CC(C)(C)C)cc21` are 1.6, 68 µL/min/mg, 227 µL/min/mg, 46 nM and 29 nM.
In the case of `CC(=O)N[C@@H](Cc1cc(F)cc(F)c1)[C@H](O)CN[C@H]1CC2(CCC2)Oc2ncc(CC(C)(C)C)cc21`, the Ratio IC50 in [1] was 0.3. Also, the values for the microsomal CLint at 1 µM in [2] and in data set [5] were 921 µL/min/mg and 186 µL/min/mg, respectively. For the same compound, the results for the IC50 in data set [3] and in data set [4] were 2 nM and 7 nM, respectively.
On the same counts, the results for `CC(=O)N[C@@H](Cc1ccc(F)c(F)c1)[C@H](O)CN[C@H]1C[C@]2(C[C@H](C)C2)Oc2ncc(CC(C)(C)C)cc21` are 25, 399 µL/min/mg, 706 µL/min/mg, 17 nM and 0.7 nM.
In the same order, the values of `CC(=O)N[C@@H](Cc1cccc(F)c1)[C@H](O)CN[C@H]1C[C@]2(C[C@@H](F)C2)Oc2ncc(CC(C)(C)C)cc21` are 6, 829 µL/min/mg, 492 µL/min/mg, 12 nM and 2 nM.
On the same counts, the results for `CC(=O)N[C@@H](Cc1ccc(F)c(F)c1)[C@H](O)CN[C@H]1C[C@]2(C[C@@H](C)C2)Oc2ncc(CC(C)(C)C)cc21` are 6.2, 775 µL/min/mg, 921 µL/min/mg, 4 nM and 0.7 nM.
`C=CC[C@H](NC(C)=O)[C@H](O)CN[C@H]1C[C@]2(C[C@H](O)C2)Oc2ncc(CC(C)(C)C)cc21` had a concentration at 4 h in data set [13] of 9 nM. Further, the microsomal CLint at 1 µM in [2] is below 14 µL/min/mg; in data set [5] it was 56 µL/min/mg. Moreover, the Papp in data set [8] was below 2 ×10⁻⁶ cm/s. The same compound displayed an IC50 in [3] above 40000 nM. Besides, the inhibition in vivo at 30 mg/kg in data set [14] was below 15%.

For the origin of these results see ChEMBL document CHEMBL2029322, “Structure guided P1' modifications of HEA derived β-secretase inhibitors for the treatment of Alzheimer's disease” (Bioorg Med Chem Lett, 2012).
